The SangsterLogP compilation

Experiment: method code SF-AS, from DOI: 10.1007/bf00778146

SMILES | logP
CC(CO)(CO)Nc1nc(N2CC2)nc(N2CC2)n1 | -0.75
OCC1(Nc2nc(N3CC3)nc(N3CC3)n2)COC(c2ccccc2)OC1 (stereo unspecified) | 0.62
OCC(CO)Nc1nc(N2CC2)nc(N2CC2)n1 | -1.54
CC1(C)OCC(CO)(Nc2nc(N3CC3)nc(N3CC3)n2)CO1 | -0.52
COc1ccc(C2OCC(CO)(Nc3nc(N4CC4)nc(N4CC4)n3)CO2)cc1OC (stereo unspecified) | 0.89
CCC1(Nc2nc(N3CC3)nc(N3CC3)n2)COC(C)(C)OC1 | 0.85
CCC(CO)(CO)Nc1nc(N2CC2)nc(N2CC2)n1 | -0.32
CC(C)C1OCC(CO)(Nc2nc(N3CC3)nc(N3CC3)n2)CO1 (stereo unspecified) | 0.22
OCC1(Nc2nc(N3CC3)nc(N3CC3)n2)COC(c2ccco2)OC1 (stereo unspecified) | 0.27
OCC(CO)(CO)Nc1nc(N2CC2)nc(N2CC2)n1 | -1.76
CC1(C)OCC(Nc2nc(N3CC3)nc(N3CC3)n2)CO1 | 0.11
